Test results: a compilation of properties of binary mixtures (doi:10.1016/j.molliq.2014.08.031)

Test: xn = mol fraction of the nth substance listed
Conditions: 101 kPa

CCCC[n+]1ccn(C)c1.CS(=O)(=O)[O-] + O
Conditions	electrical conductivity [S/m]	viscosity [mPa·s]
313.15 K, x2 = 0.5596	–	26.8
313.15 K, x2 = 0.6542	–	17.83
313.15 K, x2 = 0.7015	–	14.43
313.15 K, x2 = 0.704	1.07	–
313.15 K, x2 = 0.7495	–	11.11
313.15 K, x2 = 0.785	1.89	–
313.15 K, x2 = 0.796	1.98	–
313.15 K, x2 = 0.8016	–	8.17
313.15 K, x2 = 0.8521	–	5.48
313.15 K, x2 = 0.861	3.55	–
313.15 K, x2 = 0.9254	–	2.67
313.15 K, x2 = 0.929	5.27	–
313.15 K, x2 = 0.9503	–	1.854
313.15 K, x2 = 0.951	5.76	–
313.15 K, x2 = 0.968	5.4	–
313.15 K, x2 = 0.975	–	1.148
314.15 K, x1 = 0.004	1.61	–
314.15 K, x1 = 0.008	2.86	–
314.15 K, x1 = 0.019	4.58	–
314.15 K, x2 = 0.704	1.1	–
314.15 K, x2 = 0.785	1.96	–
314.15 K, x2 = 0.796	2.04	–
314.15 K, x2 = 0.861	3.71	–
314.15 K, x2 = 0.929	5.42	–
314.15 K, x2 = 0.951	5.97	–
314.15 K, x2 = 0.968	5.53	–
315.15 K, x1 = 0.004	1.64	–
315.15 K, x1 = 0.008	2.91	–
315.15 K, x1 = 0.019	4.65	–
315.15 K, x2 = 0.704	1.14	–
315.15 K, x2 = 0.785	2.02	–
315.15 K, x2 = 0.796	2.11	–
315.15 K, x2 = 0.861	3.75	–
315.15 K, x2 = 0.892	4.58	–
315.15 K, x2 = 0.929	5.54	–
315.15 K, x2 = 0.951	6.11	–
316.15 K, x1 = 0.004	1.67	–
316.15 K, x1 = 0.008	2.97	–
316.15 K, x1 = 0.019	4.73	–
316.15 K, x2 = 0.704	1.18	–
316.15 K, x2 = 0.796	2.17	–
316.15 K, x2 = 0.861	3.84	–
316.15 K, x2 = 0.892	4.75	–
316.15 K, x2 = 0.929	5.63	–
316.15 K, x2 = 0.968	5.71	–
317.15 K, x1 = 0.008	3	–
317.15 K, x1 = 0.019	4.82	–
317.15 K, x2 = 0.704	1.22	–
317.15 K, x2 = 0.785	2.1	–
317.15 K, x2 = 0.796	2.22	–
317.15 K, x2 = 0.861	3.94	–
317.15 K, x2 = 0.892	4.86	–
317.15 K, x2 = 0.929	5.78	–
318.15 K, x1 = 0.004	1.72	–
318.15 K, x1 = 0.008	3.06	–
318.15 K, x1 = 0.019	4.92	–
318.15 K, x2 = 0.704	1.27	–
318.15 K, x2 = 0.785	2.15	–
318.15 K, x2 = 0.796	2.29	–
318.15 K, x2 = 0.861	4.05	–
318.15 K, x2 = 0.892	4.99	–
318.15 K, x2 = 0.951	6.37	–
318.15 K, x2 = 0.968	5.94	–
319.15 K, x1 = 0.004	1.76	–
319.15 K, x1 = 0.008	3.11	–
319.15 K, x1 = 0.019	5.07	–
319.15 K, x2 = 0.785	2.21	–
319.15 K, x2 = 0.796	2.35	–
319.15 K, x2 = 0.892	5.12	–
319.15 K, x2 = 0.929	6.06	–
319.15 K, x2 = 0.951	6.73	–
320.15 K, x1 = 0.008	3.17	–
320.15 K, x2 = 0.785	2.28	–
320.15 K, x2 = 0.796	2.4	–
320.15 K, x2 = 0.861	4.25	–
320.15 K, x2 = 0.929	6.2	–
320.15 K, x2 = 0.951	6.7	–
321.15 K, x1 = 0.004	1.82	–
321.15 K, x1 = 0.008	3.21	–
321.15 K, x1 = 0.019	5.2	–
321.15 K, x2 = 0.704	1.39	–
321.15 K, x2 = 0.785	2.36	–
321.15 K, x2 = 0.861	4.38	–
321.15 K, x2 = 0.892	5.35	–
321.15 K, x2 = 0.929	6.32	–
321.15 K, x2 = 0.951	6.78	–
322.15 K, x1 = 0.004	1.85	–
322.15 K, x1 = 0.008	3.28	–
322.15 K, x1 = 0.019	5.28	–
322.15 K, x2 = 0.785	2.44	–
322.15 K, x2 = 0.861	4.47	–
322.15 K, x2 = 0.951	6.94	–
322.15 K, x2 = 0.968	6.41	–
323.15 K, x1 = 0.004	1.88	–
323.15 K, x1 = 0.008	3.33	–
323.15 K, x1 = 0.019	5.4	–
323.15 K, x2 = 0.5596	–	19
323.15 K, x2 = 0.6542	–	12.84
323.15 K, x2 = 0.7015	–	10.57
323.15 K, x2 = 0.704	1.49	–
323.15 K, x2 = 0.7495	–	8.22
323.15 K, x2 = 0.796	2.62	–
323.15 K, x2 = 0.8521	–	4.18
323.15 K, x2 = 0.861	4.6	–
323.15 K, x2 = 0.892	5.62	–
323.15 K, x2 = 0.9004	–	2.87
323.15 K, x2 = 0.9254	–	2.13
323.15 K, x2 = 0.929	6.51	–
323.15 K, x2 = 0.968	6.56	–
323.15 K, x2 = 0.975	–	0.939
324.15 K, x2 = 0.704	1.54	–
324.15 K, x2 = 0.785	2.57	–
324.15 K, x2 = 0.796	2.68	–
324.15 K, x2 = 0.861	4.7	–
324.15 K, x2 = 0.929	6.65	–
324.15 K, x2 = 0.951	7.19	–
324.15 K, x2 = 0.968	6.6	–
325.15 K, x1 = 0.004	1.94	–
325.15 K, x2 = 0.785	2.63	–
325.15 K, x2 = 0.861	4.82	–
325.15 K, x2 = 0.892	5.85	–
325.15 K, x2 = 0.951	7.31	–
325.15 K, x2 = 0.968	6.74	–
326.15 K, x1 = 0.008	3.43	–
326.15 K, x1 = 0.019	5.63	–
326.15 K, x2 = 0.704	1.63	–
326.15 K, x2 = 0.785	2.7	–
326.15 K, x2 = 0.796	2.83	–
326.15 K, x2 = 0.861	4.9	–
326.15 K, x2 = 0.892	5.98	–
327.15 K, x1 = 0.004	1.99	–
327.15 K, x1 = 0.008	3.54	–
327.15 K, x1 = 0.019	5.55	–
327.15 K, x2 = 0.785	2.75	–
327.15 K, x2 = 0.796	2.9	–
327.15 K, x2 = 0.892	6.11	–
327.15 K, x2 = 0.968	6.87	–
328.15 K, x1 = 0.004	2.01	–
328.15 K, x1 = 0.008	3.6	–
328.15 K, x2 = 0.704	1.74	–
328.15 K, x2 = 0.785	2.83	–
